“And” between values parts separate entries of the source, which are not always exact repeats. Equal entries are not always repeated. “Also recorded” adds a separate entry of the source. Where two headings read alike, the source gives them in different places.
Tests used:
[1] = target: T1, BChE (Homo sapiens, UniProt P06276); settings: read-out: IC50 against BChE; cited from earlier work
[2] = target: T2, AChE (Homo sapiens, UniProt P22303); settings: read-out: IC50 against AChE; cited from earlier work
[3] = cited from earlier work
[4] = target: T2, AChE; assay: biochemical; assay type: biochemical; settings: for inhibition at 50 µM: mean ± S.E
[5] = target: T1, BChE; assay: BChE inhibition, modified Ellman's method; assay type: biochemical
Protocol: Cholinesterase inhibitory activities of all derivatives were assessed using the modified Ellman’s method. Briefly, 20 µL AChE 0.18 units/mL, or 20 µL BChE 0.162 units/mL, and 20 µL DTNB (301 μM) were added to 200 μL sodium phosphate buffer (0.1 mol/L, pH = 7.4) in separate wells of a 96-well microplate and gently mixed. […]. The absorbance of each well was measured at 415 nm using a microplate reader. IC50 and inhibition values were calculated with the software curve expert as the mean of three independent experiments and expressed as mean ± SEM [25, 26].

[6] = target: T1, BChE; assay: Enzyme kinetic study against BChE (Lineweaver–Burk and secondary plots); assay type: biochemical
Excerpt: […]. As the concentration of inhibitor 4k increased, the Michaelis–Menten constant (Km) increased, and the maximum reaction rate (Vmax) remained unaffected.
The Ki value provides important information about the strength of the interaction between the inhibitor and the enzyme (Fig. 4).
[…]. A Lineweaver–Burk plot was generated to determine the inhibition type and calculate the Michaelis–Menten constant (Km). Secondary plots were constructed to determine the experimental inhibitor constant (Ki).

[7] = mean ± S.E, read-out: BChE (IC50)
[8] = single graphs behind the mean BChE IC50 of Table 2, read-out: IC50 (individual IC50 graphs, Table S1)

T2 sequence (P22303 32-614): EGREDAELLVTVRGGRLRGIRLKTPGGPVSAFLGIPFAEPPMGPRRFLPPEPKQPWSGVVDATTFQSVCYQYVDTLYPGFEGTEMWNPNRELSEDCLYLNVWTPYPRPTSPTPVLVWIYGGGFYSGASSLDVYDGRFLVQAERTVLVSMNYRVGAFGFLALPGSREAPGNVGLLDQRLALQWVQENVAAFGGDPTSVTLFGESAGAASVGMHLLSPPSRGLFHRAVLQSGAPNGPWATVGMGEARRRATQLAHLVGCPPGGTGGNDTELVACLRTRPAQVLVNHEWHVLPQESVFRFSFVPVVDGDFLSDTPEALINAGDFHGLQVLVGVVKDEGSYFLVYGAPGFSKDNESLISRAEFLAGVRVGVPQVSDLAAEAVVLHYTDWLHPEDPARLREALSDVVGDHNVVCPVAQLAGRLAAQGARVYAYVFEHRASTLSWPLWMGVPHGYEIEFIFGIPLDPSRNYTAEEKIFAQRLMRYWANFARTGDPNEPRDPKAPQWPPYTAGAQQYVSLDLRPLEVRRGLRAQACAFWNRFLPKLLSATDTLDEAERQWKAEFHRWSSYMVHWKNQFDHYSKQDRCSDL
T1 sequence (P06276 29-602): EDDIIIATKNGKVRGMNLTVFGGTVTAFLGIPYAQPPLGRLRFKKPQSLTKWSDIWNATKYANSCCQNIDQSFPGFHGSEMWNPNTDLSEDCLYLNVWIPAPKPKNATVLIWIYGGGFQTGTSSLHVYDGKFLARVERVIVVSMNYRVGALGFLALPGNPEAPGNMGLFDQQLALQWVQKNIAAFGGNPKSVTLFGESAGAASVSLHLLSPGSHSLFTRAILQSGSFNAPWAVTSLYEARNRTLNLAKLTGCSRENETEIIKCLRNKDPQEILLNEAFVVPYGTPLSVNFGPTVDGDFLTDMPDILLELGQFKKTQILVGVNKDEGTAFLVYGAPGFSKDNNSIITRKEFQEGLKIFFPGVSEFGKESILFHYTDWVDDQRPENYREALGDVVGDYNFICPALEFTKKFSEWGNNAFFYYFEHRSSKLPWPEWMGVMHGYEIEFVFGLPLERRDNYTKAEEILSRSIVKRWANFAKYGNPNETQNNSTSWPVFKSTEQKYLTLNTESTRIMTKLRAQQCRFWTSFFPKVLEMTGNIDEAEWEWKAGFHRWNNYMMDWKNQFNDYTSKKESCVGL

Row | SMILES | inhibition at 50 µM [4] [%] | inhibition at 50 µM ([5]; mean ± S.E) [%] | IC50 [5, 7] [nM] | IC50 [5, 8] | other results
1 | CCOc1ccc2c(c1)OC/C(=C\c1ccc(OCCN3CCCCC3)cc1)C2=O [A] | – | – | – | – | IC50 [1]: 854 ± 40 nM
2 | O=C(O)c1coc2ccc(OCc3ccccc3)cc2c1=O [B] | – | – | – | – | IC50 [2]: 370 nM; blood–brain barrier (BBB) permeability [3]: 5.4 ± 0.3 × 10^−6 cm s^−1; IC50 [1]: 5240 nM
3 | N#CC1=C(N)OC2=C(C(=O)CCC2)C1c1ccccc1 (stereo not drawn) [Compound 4a, 2-Amino-5-oxo-4-phenyl-5,6,7,8-tetrahydro-4H-chromene-3-carbonitrile] | 21 ± 1.31 | 39.8 ± 1.39 | – | – | –
4 | N#CC1=C(N)OC2=C(C(=O)CCC2)C1c1ccc([N+](=O)[O-])cc1 (stereo not drawn) [Compound 4b, 2-Amino-4-(4-nitrophenyl)-5-oxo-5,6,7,8-tetrahydro-4H-chromene-3-carbonitrile] | 28.9 ± 2.56 | 58.7 ± 1.18 | 27400 ± 2010 | 28800 nM and 26000 nM | –
5 | N#CC1=C(N)OC2=C(C(=O)CCC2)C1c1ccc(OCc2ccc(Cl)cc2)cc1 (stereo not drawn) [Compound 4c, 2-Amino-4-{4-[(4-chlorobenzyl)oxy]phenyl}-5-oxo-5,6,7,8-tetrahydro-4Hchromene-3-carbonitrile] | 23.6 ± 1.2 | 77.7 ± 3.77 | 890 ± 240 | 1070 nM and 720 nM | –
6 | N#CC1=C(N)OC2=C(C(=O)CCC2)C1c1ccc(OCc2ccc(Br)cc2)cc1 (stereo not drawn) [Compound 4d, 2-Amino-4-{4-[(4-bromobenzyl)oxy]phenyl}-5-oxo-5,6,7,8-tetrahydro-4Hchromene-3-carbonitrile] | 23.4 ± 1 | 67.8 ± 1.7 | 1190 ± 310 | 1410 nM and 970 nM | –
7 | N#CC1=C(N)OC2=C(C(=O)CCC2)C1c1ccc(OCCN2CCOCC2)cc1 (stereo not drawn) [Compound 4e, 2-Amino-4-[4-(2-morpholinoethoxy)phenyl]-5-oxo-5,6,7,8-tetrahydro-4Hchromene-3-carbonitrile] | 34.4 ± 3.1 | 58.9 ± 0.93 | 26300 ± 3340 | 28700 nM and 24000 nM | –
8 | N#CC1=C(N)OC2=C(C(=O)CCC2)C1c1cccc(OCc2ccc(Cl)cc2)c1 (stereo not drawn) [Compound 4f, 2-Amino-4-{3-[(4-chlorobenzyl)oxy]phenyl}-5-oxo-5,6,7,8-tetrahydro-4H-chromene-3-carbonitrile] | 4.42 ± 0.57 | 62 ± 7.24 | 5700 ± 680 | 6180 nM and 5210 nM | inhibitory activity against AChE (in words) [4]: nearly inactive
9 | N#CC1=C(N)OC2=C(C(=O)CCC2)C1c1cccc(OCc2ccc(Br)cc2)c1 (stereo not drawn) [Compound 4g, 2-Amino-4-{3-[(4-bromobenzyl)oxy]phenyl}-5-oxo-5,6,7,8-tetrahydro-4Hchromene-3-carbonitrile] | 15 ± 2.59 | 57.3 ± 9.75 | 13100 ± 2590 | 11200 nM and 14900 nM | inhibitory activity against AChE (in words) [4]: nearly inactive
10 | N#CC1=C(N)OC2=C(C(=O)CCC2)C1c1ccccc1OCc1ccc(Cl)cc1 (stereo not drawn) [Compound 4h, 2-Amino-4-{2-[(4-chlorobenzyl)oxy]phenyl}-5-oxo-5,6,7,8-tetrahydro-4H-chromene-3-carbonitrile] | 7.35 ± 0.56 | 21.3 ± 2.69 | – | – | –
11 | N#CC1=C(N)OC2=C(C(=O)CCC2)C1c1ccccc1OCc1cccc(Cl)c1 (stereo not drawn) [Compound 4i, 2-Amino-4-{2-[(3-chlorobenzyl)oxy]phenyl}-5-oxo-5,6,7,8-tetrahydro-4H-chromene-3-carbonitrile] | 19.4 ± 2.39 | 42.8 ± 1.22 | – | – | –
12 | COc1ccc(COc2ccccc2C2C(C#N)=C(N)OC3=C2C(=O)CCC3)cc1 (stereo not drawn) [Compound 4j, 2-Amino-4-{2-[(4-methoxybenzyl)oxy]phenyl}-5-oxo-5,6,7,8-tetrahydro-4H-chromene-3-carbonitrile] | 16.3 ± 0.63 | 38.3 ± 4.36 | – | – | –
13 | COc1cc(C2C(C#N)=C(N)OC3=C2C(=O)CCC3)ccc1OCc1ccc(F)cc1 (stereo not drawn) [Compound 4k, 2-Amino-4-{4-[(4-fluorobenzyl)oxy]-3-methoxyphenyl}-5-oxo-5,6,7,8-tetrahydro-4H-chromene-3-carbonitrile] | 41.1 ± 2.33 | 80.5 ± 5.08 | 650 ± 130 | – | type of inhibition ([6]; Lineweaver–Burk plot, Km increased, Vmax unaffected): competitive-type inhibition; also recorded: competitive inhibitor; Ki ([6]; from secondary plot of slopes vs inhibitor concentration, R^2 = 0.9876, read-out: Ki (inhibition constant)): 550 nM
14 | COc1cc(C2C(C#N)=C(N)OC3=C2C(=O)CCC3)ccc1OCc1cccc(F)c1 (stereo not drawn) [Compound 4l, 2-Amino-4-{4-[(3-fluorobenzyl)oxy]-3-methoxyphenyl}-5-oxo-5,6,7,8-tetrahydro-4H-chromene-3-carbonitrile] | 33.6 ± 3.29 | 76.1 ± 0.88 | 2630 ± 190 | 2770 nM and 2490 nM | –
15 | COc1cc(C2C(C#N)=C(N)OC3=C2C(=O)CCC3)ccc1OCc1cccc(Cl)c1 (stereo not drawn) [Compound 4m, A-amino-4-{4-[(3-chlorobenzyl)oxy]-3-methoxyphenyl}-5-oxo-5,6,7,8-tetrahydro-4H-chromene-3-carbonitrile] | 12.9 ± 1.27 | 69.7 ± 1.52 | 1510 ± 200 | – | IC50 ([5]; read-out: IC50 (individual IC50 graphs, Table S1)): 1650 nM and 1360 nM
16 | O=C(NCCCCCCCCCCNc1c2c(nc3ccccc13)CCCC2)c1cc(=O)c2cc(O)ccc2o1 [E] | – | – | – | – | IC50 [2]: 8000 ± 200 nM; BBB permeability [3]: 23.1 ± 0.1 × 10^−6 cm s^−1; IC50 [1]: 1500 ± 40 nM
17 | N#CC1=C(N)Oc2c(c(=O)oc3ccccc23)C1c1cc[n+](Cc2ccc(F)cc2)cc1 (stereo not drawn) [F] | – | – | – | – | IC50 [1]: 1840 ± 120 nM
18 | N#CC1=C(N)OC2=C(C(=O)CCC2)C1c1ccc(OCCN2CCCCC2)cc1 (stereo not drawn) [G] | – | – | – | – | IC50 [2]: 20400 ± 9300 nM; IC50 [1]: 8100 ± 500 nM
